# Assay results published in patent US20170334919A1, “2-((4-AMINO-3-(3-FLUORO-5-HYDROXYPHENYL)-1H-PYRAZOLO[3,4-D]PYRIMIDIN-1 -YL)METHYL)-3-(2-(TRIFLUORO-MET HYL)BENZYL)QUINAZOLIN-4(3H)-ONE DERIVATIVES AND THEIR USE AS PHOSPHOINOSITIDE 3-KINASE INHIBITORS” (RESPIVERT LTD., priority 2013, published 2017).
# Read-outs that look alike come from different tables or passages of the source.
# Experiments:
# [1] = test system: PBMCs; assay: Cytostim-induced cytokine production in PBMCs; assay type: cell-based; conditions: Homo sapiens, PBMC
# Experimental: As a means of assessing PI3Kδ-dependent cell function, cytostim-induced IL-4, IL-5, IL-13 and IFNγ production in PBMCs were evaluated by Luminex multiplex assay. All healthy volunteers were recruited by Quintiles Limited (London, UK), and blood samples were delivered to Respivert Ltd. This study was approved by the local Ethics Committee, and all subjects gave written informed consent.
# PBMC suspensions (200 μL; 2×10^6 cells/mL) were added to a 96-well plate. Cells were treated with either test compounds in neat DMSO or DMSO as vehicle (2 μL) and incubated at RT for 1 hr. Cytostim (Miltentyi Biotec, Surrey, UK) was introduced at a ratio of 1:50 and the cells were incubated for 20 hr (37° C.; 5% CO2). Plates were spun at 500×g for 5 min and the supernatant collected. A high sensitivity cytokine magnetic bead kit (#HSCYTMAG-60SK, Millipore, Watford, UK) was used to measure the four analytes (IL-4, IL-5, IL-13 and IFNγ) by Luminex as follows: The magnetic antibody beads were multiplexed and incubated in a 96-well plate with standard, media only or sample (50 μL) overnight with shaking at 4° C. After washing twice with Millipore wash buffer provided in the kit using a magnetic plate washer, the beads were incubated for 1 hr with detection antibody (50 μL) with shaking at RT. A streptavidin-phycoerythrin solution provided in the kit was added for 30 min with shaking at RT. After washing, the beads were re-suspended in sheath fluid (150 μL) and analysed immediately. The Luminex system was set up to count 50 beads and the amount of each analyte in the supernatant was calculated against a standard curve. The IC50 values were determined from concentration-inhibition curves using XL-Fit (IDBS, Guildford, UK)
# [2] = test system: LPS-induced airway neutrophilia in rats; assay: LPS-induced airway neutrophil accumulation in rats; assay type: in vivo
# Experimental: Non-fasted rats were dosed with either vehicle or the test compound by intra-tracheal administration (dose volume 100 μL) at time points T=−2 h, −8 h, or −12 h with respect to the start of LPS treatment. The LPS solution (0.3 mg/mL) was aerosolised using a De Vibliss ultrasonic nebuliser 2000 (7 mL during 30 min). At eight hr after LPS challenge, the trachea was cannulated and bronchoalveolar lavage fluid (BALF) extracted by infusing and then withdrawing PBS (1 mL) into the lungs via the tracheal catheter. This procedure was repeated to provide approximately 2 mL of lavage fluid.
# Total cell numbers in the BALF samples were measured using a Countess automated cell counter (Invitrogen). Cytospin smears of the BALF samples were prepared by centrifugation at 1200 rpm for 2 min at RT and stained using a DiffQuik stain system (Dade Behring) for differential cell counts. Cells were counted using oil immersion microscopy. Data are expressed as neutrophil number of cells per mL of BALF (mean±S.E.M).
# [3] = test system: PI3K γ (Akt phosphorylation in d-U937 cells); assay: PI3K γ cell based assay: MCP-1-induced Akt phosphorylation in d-U937 cells; conditions: Homo sapiens, dU937; inhibition of induced Akt phosphorylation; read-out: Cellular Activity REC50 values in d-U937 cells, MCP-1 stimulus
# Experimental: As a means of assessing the activation of PI3K γ in response to stimuli, the phosphorylation status of the protein, Akt, a downstream product of PI3K γ signalling, was determined following stimulation with MCP-1.
# U937 cells were differentiated to macrophage-type cells by incubation with PMA (100 ng/mL) for 48 to 72 hr. Cells were then pre-incubated with either the test compound or vehicle for 2 hr and were then stimulated briefly with MCP-1 (10 nM, 1 min) and the reaction stopped by replacing the media with 4% formaldehyde solution. […] After washing with buffer (PBS containing 0.1% Triton X-100), cells were incubated with an HRP-conjugated secondary antibody (Dako) and the resultant signal was determined colorimetrically (OD: 450 nm with a reference wavelength of 655 nm) using TMB substrate (substrate reagent pack supplied by R&D Systems, Inc.).
# This reaction was stopped by addition of 1N H2SO4 solution (100 μL). […] After washing with buffer (PBS containing 0.1% Triton X-100) 1% SDS (100 μL) was added to each well and the plates were shaken lightly for 1 hr prior to measuring the absorbance at 595 nm (Varioskan® Flash, Thermo-Fisher Scientific). The measured OD450-655 readings were corrected for cell number by dividing the OD450-655 by the OD595 readings. The ratio of pAkt signal to total Akt signal was used to quantitate the extent of PI3K γ activation. […]
# [4] = test system: d-U937 cells; assay: MTT assay, cell viability; assay type: cell-based, human; conditions: 10 μg/mL
# Experimental: PMA-differentiated U937 cells were pre-incubated with test compound (10 μg/mL) or vehicle for 4 hr in 5% FCS or 10% FCS for 24 hr. The supernatant was replaced with new media (200 μL) and MTT stock solution (10 μL, 5 mg/mL) was added to each well. After 1 hr incubation, the media were removed, 200 μL of DMSO was added to each well and the plates were shaken lightly for 1 hr prior to reading the absorbance at 550 nm. The percentage loss of cell viability was calculated for each well relative to vehicle (0.5% DMSO)-treatment.
# [5] = 0.2 mg/mL intra-tracheal, pre-dose time 12 h
structure (smiles),measurement,setting,value
"COCCOCCOCC#Cc1cccc2nc(Cn3nc(-c4cc(O)cc(F)c4)c4c(N)ncnc43)n(Cc3ccccc3C(F)(F)F)c(=O)c12 [Compound (I), 2-((4-Amino-3-(3-fluoro-5-hydroxyphenyl)-1H-pyrazolo[3,4-d]pyrimidin-1-yl)methyl)-5-(3-(2-(2-methoxyethoxy)ethoxy)prop-1-yn-1-yl)-3-(2-(trifluoromethyl)benzyl)quinazolin-4(3H)-one]",IC50,"[1]; read-out: IC50, Cytostim-induced IFNγ in PBMCs",13.8 nM
same,IC50,"[1]; read-out: IC50, Cytostim-induced IL-4 in PBMCs",< 1.4 nM
same,IC50,"[1]; read-out: IC50, Cytostim-induced IL-5 in PBMCs",< 1.4 nM
same,IC50,"[1]; read-out: IC50, Cytostim-induced IL-13 in PBMCs",< 1.4 nM
same,"Neutrophil numbers in BALF, % inhibition","[2]; 0.05 mg/mL intra-tracheal, pre-dose time 2 hr",2.3 (9) %
same,"Neutrophil numbers in BALF, % inhibition","[2]; 0.2 mg/mL intra-tracheal, pre-dose time 2 hr",1.6 (58) %
same,"Neutrophil numbers in BALF, % inhibition","[2]; 0.2 mg/mL intra-tracheal, pre-dose time 8 hr",33%
same,Neutrophil numbers in BALF (mean ± SEM),[2]; [5],13.6 ± 2.7 ×10^5/mL
same,"Neutrophil numbers in BALF, % inhibition",[2]; [5],10%
same,"Neutrophil numbers in BALF, % inhibition","[2]; 1.0 mg/mL intra-tracheal, pre-dose time 2 hr",73%
same,EC50,[3],16.5 nM
same,Cell Viability MTT Assay in d-U937 cells at 4 hr,[4]; 4 hr,−ve (−ve indicates a value of <30% inhibition at 10 μg/mL)
same,Cell Viability MTT Assay in d-U937 cells at 24 hr,[4]; 24 hr,−ve (−ve indicates a value of <30% inhibition at 10 μg/mL)
